For orientation: EC50 means the concentration at which the effect is half-maximal. One may read the Papp as the rate of passage across a membrane or cell layer, normalised by area and donor concentration.

In one data set the test system is HL-1 cells. Kind of data set: Apoptosis of ischemic HL-1 cardiomyocytes (TUNEL assay, flow cytometer). Particulars: 100 µM; 8 h ischemia (glucose deficient medium + hydrogen peroxide); 8h Ischemia alone 701.6, 8h Control 100. The data set is classed as cell-based, mouse. Here is the method:
To establish a cardiomyocytes based apoptosis assay, which mimics the post-ischemic damage observed after myocardial infarction, we have utilized a cardiac muscle cell line, HL-1 cells, derived from the AT-1 mouse atrial cardiomyocyte tumor lineage. The HL-1 cells were incubated in glucose deficient medium in the presence of hydrogen peroxide and either in presence or absence of compounds of the invention Apoptosis rate of ischemic HL-1 cells was normalised to the apoptosis rate of the 8h control cells under non-ischemic conditions, thus incubated with normal concentration of glucose in the absence of hydrogen peroxide. Both non-ischemic and ischemic HL-1 cultures were harvested after 8 hours. […] The apoptotic rates were then evaluated by TUNEL assay, a method for detecting DNA strand breaks in apoptotic cells by flow cytometer The solvent of the compounds, i.e DMSO, has no influence on the apoptosis rate. […] Effect of newly synthesized compounds with Rac1 inhibitory activity on apoptosis rate in HL-1 cells normalized to control (TUNEL-assay) The data are representative of two experiments.

A further data set relates to HepG2 cells. Kind of data set: Resazurine cytotoxicity assay (metabolic activity), HepG2. The data set is classed as cell-based, human. To be noted: for toxic classification / MVC / EC50: HepG2, 24 h; for toxic classification: classification in words in the text; for MVC: maximal viability concentration; for Cytotoxicity-Classification: HepG2, 24 h exposure; for EC50: Homo sapiens. Here is the method:
(§1) For a pre-screening of the compounds they were first tested in human hepatocellular carcinoma cells (HepG2 cells)for 24 h and to gain further information about the cytotoxic potential more specific target tissues like the mouse cardiomyocytes HL-1 and primary rat cardiomyocytes were used additionally. […] The toxicity classification has been determined by using drugs currently utilized in clinic with known toxicity profile
(In general: Resazurin is reduced to fluorescent resorufin, in cell work by metabolically active cells.)

A short description of data set [1]: PAMPA (Parallel Artificial Membrane Permeability Assay). The data set is classed as in vitro ADME. Particulars: start concentration 250 µM, diffusion period 16 h. As to the method:
(§2) The permeation characteristics of the Rac1 inhibitors were determined first in the artificial system PAMPA (Parallel Artificial Membrane Permeability Assay) which uses a membrane covered with a lipid to simulate the lipid bilayer of various cell types, including intestinal epithelium and second in vitro across Caco2, a human colon carcinoma cell line seeded as monolayers onto polycarbonate membranes. The PAMPA is able to predict the ability of a compound to permeate by a passive transcellular transport through an artificial lipid layer assembled on a membrane and also allows a classification into low (flux <20%), medium (20%≤ flux ≤70%), and high (flux >70%) absorbing substances. The Caco2 assay provides a well-established in vitro model to predict the human intestinal absorption.
The flux rate of the compounds of the invention and the reference NSC23766 was measured from a donor compartment to an acceptor compartment across the lipid layer at a start concentration of 250 µM over a diffusion period of 16 h.
In general terms: PAMPA measures passive passage across an artificial lipid membrane.

Data set [2] is described as follows: Caco2 monolayer permeation. The data set is classed as in vitro ADME, human. Particulars: human, Caco-2, Caco2 monolayers, start concentration 50 µM. As to the method: as §2
The test system of another data set is Caco2. As to the kind of experiment: Caco2 monolayer permeation. To be noted: Caco2 monolayers, 90 min, start concentration 50 µM. The data set is classed as in vitro ADME, human. As to the method: as §2
The target of the next data set is T1, Rac1 (Homo sapiens, UniProt P63000).
T1 construct: endogenous in cells; host or cells: human cultured smooth muscle cells, stimulated with PDGF-BB
As to the kind of experiment: G-LISA assay of intracellular Rac1-GTP in PDGF-BB stimulated human smooth muscle cells. The data set is classed as cell-based. Particulars: for remaining activity at 50 µM / remaining activity at 100 µM: read-out: Rac1 inhibitory activity (% vs control); for remaining activity at 100 µM: Concentration 100 µm. The source says:
The intracellular amount of Rac1-GTP has been determined using the GLISA™ assay (Cytoskeleton, Inc). The GLISA™ assay uses a 96-well plate coated with RBD domain of Rac1-family effector protein PAK1. […] A significant inhibition on Rac1 activity should decrease the intracellular levels of Rac1-GTP and therefore reduce the percentage of Rac1-GTP detected compared to control untreated cells.

A further data set relates to HL-1. As to the kind of experiment: Resazurine cytotoxicity assay (metabolic activity), HL-1. The data set is classed as cell-based, mouse. As to the method: as §1
Data set [3] relates to primary rat cardiomyocytes. As to the kind of experiment: Resazurine cytotoxicity assay (metabolic activity), primary rat cardiomyocytes. The data set is classed as cell-based. As to the method: as §1
[4] abbreviates: Concentration 50 µm, 4 hours incubation, then PDGF-BB 10 ng/ml, Rac1-GTP detected relative to control (100), lower = more inhibition.
[5] abbreviates: 4 hours incubation, then PDGF-BB 10 ng/ml, Rac1-GTP detected relative to control (100), lower = more inhibition.

Where two headings read alike, the source gives them in different places.

Regarding `CCN(CC)CCCC(C)Nc1nc(C)cc(Nc2ccc3nc(C)cc(N)c3c2)n1` (racemic) [NSC23766, reference compound], the “Relative rate of apoptosis normalised to control [%]” value with HL-1 cells is reported as 546.5%. Further, in the data set on HepG2 cells, the toxic classification entry is recorded as “not toxic (not toxic (EC50 > 500 µM))”; the “MVC” value came out at 31.2 µM; the Cytotoxicity-Classification entry is recorded as “no (EC50 > 500 µM, (no))”; the EC50 is more than 500 µM. Moreover, in data set [1], the PAMPA classification entry is “low (low (flux <20%))” and the “PAMPA flux [%] ± SD” value is 11±4%. In data set [2], this compound came in with a Papp at 90 min, 50 µM of 2.4 ± 4.2 ×10⁻⁶ cm/s. In the data set with Caco2, the “Caco2 Classification” value was “medium (compounds with Papp between 1 and 10 are moderately absorbed (20 - 70%))”.
As to `CCN(CC)CCCC(C)Nc1nc(C)cc(Oc2ccc3nc(C)ccc3c2)n1` (centres unmarked) [CWB001/01018, N1,N1-Diethyl-N4-[4-methyl-6-(2-methyl-quinolin-6-yloxy)-pyrimidin-2-yl]-pentane-1,4-diamine], the remaining activity at 50 µM at Rac1 (setting [4]) was determined as 102%.
Still for that read-out and setting: with `CCN(CC)CCCC(C)Nc1nc(C)cc(NCCc2c[nH]c3ccccc23)n1` (centres unmarked) [CWB002/02038, N2-(4-Diethylamino-1-methyl-butyl)-N4-[2-(1H-indol-3-yl)-ethyl)-6-methylpyrimidine-2,4-diamine] the figure was 109%; with `CCN(CC)CCCC(C)Nc1nc(C)cc(Nc2ccc3ncccc3c2)n1` (centres unmarked) [CWB003/01020, N2-(4-Diethylamino-1-methyl-butyl)-6-methyl-N4-quinolin-6-yl-pyrimidine-2,4-diamine], 93.8%.
For the compound `CCN(CC)CCCC(C)Nc1nc(C)cc(Nc2ccc3nc(C)cc(O)c3c2)n1` (centres unmarked) [CWB005/02039, 6-[2-(4-Diethylamino-1-methyl-butylamino)-6-methyl-pyrimidin-4-ylamino]-2-methyl-quinolin-4-ol], at Rac1 (setting [4]), the remaining activity at 50 µM stood at 106%.
On to `Cc1cc(Nc2ccc3nc(C)cc(O)c3c2)nc(NCCc2c[nH]c3ccccc23)n1` [CWB006/02035, 6-{2-[2-(1H-Indol-3-yl)-ethylamino]-6-methyl-pyrimidin-4-ylamino}-2-methyl-quinolin-4-ol], for which the remaining activity at 50 µM on Rac1 (setting [4]) amounted to 91.5%.
The same measure, in the same setting: with `CCN(CC)CCCC(C)Nc1nc(C)cc(N2CCOCC2)n1` (centres unmarked) [CWB007/02040, N1,N1-Diethyl-N4-(4-methyl-6-morpholin-4-yl-pyrimidin-2-yl)-pentane-1,4-diamine] the figure was 101%; with `CCN(CC)CCCC(C)Nc1nc(C)cc(N2CCCCC2)n1` (centres unmarked) [CWB008/02044, N1,N1-Diethyl-N4-(4-methyl-6-piperidin-1-yl-pyrimidin-2-yl)-pentane-1,4-diamine], 95.8%.
For `CCN(CC)CCCNc1nc(C)cc(Oc2ccc3nc(C)ccc3c2)n1` [CWB011/01023, N,N-Diethyl-N'-[4-methyl-6-(2-methyl-quinolin-6-yloxy)-pyrimidin-2-yl]-propane-1,3-diamine], the remaining activity at 50 µM at Rac1 (setting [4]) came out at 94.8%.
With `CCOC(=O)CNc1cc(C)nc(NC(C)CCCN(CC)CC)n1` (centres unmarked) [CWB012/01025, [2-(4-Diethylamino-1-methyl-butylamino)-6-methyl-pyrimidin-4-ylamino]-acetic acid ethyl ester], the remaining activity at 50 µM on Rac1 (setting [4]) turned out to be 92.9%.
For the compound `CCN(CC)CCCC(C)Nc1nc(C)cc(NCC(=O)O)n1` (centres unmarked) [CWB015/01031, [2-(4-Diethylamino-1-methyl-butylamino)-6-methyl-pyrimidin-4-ylamino]-acetic acid], the remaining activity at 50 µM on Rac1 (setting [4]) is 83.9%.
For the compound `CCN(CC)CCCC(C)Nc1cc(C)nc(N2CCOCC2)n1` (centres unmarked) [CWB016/02046, N1,N1-Diethyl-N4-(6-methyl-2-morpholin-4-yl-pyrimidin-4-yl)-pentane-1,4-diamine], the remaining activity at 50 µM on Rac1 (setting [4]) is 93.2%.
In the case of `COC(=O)C(CC(C)C)Nc1cc(C)nc(Nc2ccc3ncccc3c2)n1` (centres unmarked) [CWB018/01034, 4-Methyl-2-[6-methyl-2-(quinolin-6-ylamino)-pyrimidin-4-ylamino]-pentanoic acid methyl ester], the remaining activity at 50 µM on Rac1 (setting [4]) amounted to 34.2%. On Rac1 (G-LISA, 50 µM, statement in words), the “inhibitory action on Rac1 activity” value is given as “significant end efficient inhibitory action”. Further, in the data set with HepG2 cells, the toxic classification entry is “low toxic (low toxic (100 µM < EC50 ≤ 500 µM))”. Besides, the “MVC” value with HepG2 cells is on record as 62.5 µM; in the data set with HL-1 (HL-1, 24 h, maximal viability concentration), 15.6 µM; in data set [3] (24 h, maximal viability concentration), 31.2 µM. The Cytotoxicity-Classification entry in the data set with HepG2 cells was “+ (100 µM < EC50 ≤ 500, low (+))”; with HL-1 (HL-1, 24 h exposure), “++ (10 µM < EC50 ≤ 100 µM, medium (++))”; in data set [3] (24 h exposure), “++ (10 µM < EC50 ≤ 100 µM, medium (++))”. In addition, the concentration giving a half-maximal response (EC50) turned out to be 162 µM with HepG2 cells (metabolic activity, read-out: EC50); 68 µM with HL-1 (Mus musculus, HL-1, 24 h, metabolic activity); 85 µM in data set [3] (Cardiomyocyte, 24 h, metabolic activity). Moreover, in data set [1], the PAMPA classification result is recorded as “high (high (flux >70%))”. Also, in data set [1], the “PAMPA flux [%] ± SD” value turned out to be 85±11%. This compound also returned an apparent permeability coefficient (Papp) at 90 min, 50 µM in data set [2] of 20.5 ± 1.9 ×10⁻⁶ cm/s. Besides, the “Caco2 Classification” value in the data set on Caco2 is recorded as “high (compounds with a Papp >10 are predicted to be well absorbed (70 - 100%))”.
Consider `CCN(CC)CCCC(C)Nc1nccc(Oc2ccc3ccccc3c2)n1` (centres unmarked) [CWB019/01037], for which the “Remaining Rac1-GTP (% of control)” value at Rac1 (setting [4]) is given as 101.3%.
With `CCN(CC)CCCC(C)Nc1nccc(Nc2ccc3cc[nH]c3c2)n1` (centres unmarked) [CWB023/02053, N2-(4-Diethylamino-1-methyl-butyl)-N4-(1H-indol-6-yl)-pyrimidine-2,4-diamine], the remaining activity at 100 µM on Rac1 (setting [5]) amounted to 98%.
Still for that read-out and setting: next, `CCN(CC)CCCC(C)Nc1nc(C)cc(NCCc2c[nH]c3ccc(O)cc23)n1` (centres unmarked) [CWB025/02056, 3-{2-[2-(4-Diethylamino-1-methyl-butylamino)-6-methyl-pyrimidin-4-ylamino]-ethyl}-1H-indol-5-ol]: 123%; `CCN(CC)CCCCNc1nc(C)cc(NCCc2c[nH]c3ccc(O)cc23)n1` [CWB026/02057, 3-{2-[2-(4-Diethylamino-butylamino)-6-methyl-pyrimidin-4-ylamino]-ethyl}-1H-indol-5-ol]: 108%; `CCN(CC)CCCC(C)Nc1cc(C)nc(NCCc2c[nH]c3ccc(O)cc23)n1` (centres unmarked) [CWB027/02058, 3-{2-[4-(4-diethylamino-1-methyl-butylamino)-6-methyl-pyrimidin-2-ylamino]-ethyl}-1H-indol-5-ol]: 111%.

For the origin of these results see patent publication EP2241555A1, “New RAC1 inhibitors as potential pharmacological agents for heart failure treatment” (UNIVERSITA' DEGLI STUDI DI MILANO, priority 2009, dated 2010).
